Key:
[1] = 101.3 kPa, Liquid; for viscosity: Concentric cylinders viscometry; for mass density: Vibrating tube method
[2] = xn = mol fraction of the nth substance listed; settings: 101.3 kPa, Liquid, x1 = 1; for viscosity: Concentric cylinders viscometry; for mass density: Vibrating tube method

CCCC[n+]1ccn(C)c1.O=S(=O)([N-]S(=O)(=O)C(F)(F)F)C(F)(F)F
[1]
Settings | mass density [kg/m3] | viscosity [mPa·s]
293.15 K | 1441.2 | 64
298.15 K | 1436.4 | 49.5
303.15 K | 1431.5 | 39
313.15 K | 1421.9 | 26.7
323.15 K | 1412.4 | 20.1
333.15 K | 1402.9 | 15.5
343.15 K | 1393.5 | 12.4

CCCC[n+]1ccn(C)c1.O=S(=O)([N-]S(=O)(=O)C(F)(F)F)C(F)(F)F + O=S1(=O)CCCC1
[2]
Settings | mass density [kg/m3] | viscosity [mPa·s]
293.15 K | 1441.2 | 64
298.15 K | 1436.4 | 49.5
303.15 K | 1431.5 | 39
313.15 K | 1421.9 | 26.7
323.15 K | 1412.4 | 20.1
333.15 K | 1402.9 | 15.5
343.15 K | 1393.5 | 12.4

OCC(O)CO [glycerol]
[1]
Settings | mass density [kg/m3] | viscosity [mPa·s]
313.15 K | 1249 | 303
323.15 K | 1242.4 | 139.3
333.15 K | 1235.7 | 85.5
343.15 K | 1228.9 | 50.5
353.15 K | 1221.9 | 31.2
363.15 K | 1214.8 | 19.9

OCC(O)CO [glycerol] + O=S1(=O)CCCC1
[2]
Settings | mass density [kg/m3] | viscosity [mPa·s]
313.15 K | 1249 | 303
323.15 K | 1242.4 | 139.3
333.15 K | 1235.7 | 85.5
343.15 K | 1228.9 | 50.5
353.15 K | 1221.9 | 31.2
363.15 K | 1214.8 | 19.9

O=S1(=O)CCCC1 [sulfolane]
[1]
Settings | mass density [kg/m3] | viscosity [mPa·s]
298.15 K | 1266.4 | 11.9
303.15 K | 1259.4 | 10.5
313.15 K | 1251.7 | 8.1
323.15 K | 1244 | 6.4
333.15 K | 1235.4 | 5.2
343.15 K | 1225 | 4.3
353.15 K | 1215 | 3.7
363.15 K | 1206 | 3.2
